Results: EP0745595A1, “3-(3-Aryloxyphenyl)-1-(substituted methyl)-s-triazine-2,4,6-oxo or thiotrione herbicidal agents” (American Cyanamid Company, priority 1995, dated 1996)

Tests used:
Type in all cases: in vivo
[1] = test system: ECHINOCHLOA ORYZOIDES (ARD.)FRITSCH; assay: Preemergence weed control under flooded paddy conditions, ECHORC (Watergrass (Calif.)); conditions: for ECHORC herbicidal rating: preemergence weeds, rated three to four weeks after treatment; for Herbicidal effect rating, ECHORC: preemergence, 3-4 weeks after treatment
Outline: (§1)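 In undrained pots of silt loam flooded to 1.5-3 cm, compounds are pipetted into the water before emergence at the equivalent of about 0.5, 0.25, 0.125 and 0.063 kg/ha. Plants are scored 0-9 for stand, vigor, malformation, size and chlorosis at test end (3-4 weeks).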

[2] = test system: ABUTILON THEOPHRASTI, MEDIC.; assay: Postemergence herbicidal evaluation, ABUTH (Velvetleaf); conditions: rated four to five weeks after treatment, averaged
Outline: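 This postemergence herbicide test used two-week-old velvetleaf seedlings grown in jiffy flats. Each compound was sprayed at 40 psi as a dispersion in 50/50 acetone/water with 0.5% TWEEN®20 surfactant. Plants then received routine greenhouse care. After four to five weeks, injury was scored visually on a 0-9 scale against a control, and replicate tests were averaged.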

[3] = test system: CYPERUS IRIA; assay: Preemergence weed control under flooded paddy conditions, CYPIR (Rice Flatsedge); conditions: preemergence weeds, rated three to four weeks after treatment
Outline: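 This preemergence test mimicked flooded paddy conditions: rice flatsedge propagules were sown in the upper 0.5 cm of silt loam in undrained 32 oz. containers (10.5 cm diameter), with water held 1.5 to 3 cm over the soil. After normal greenhouse care, plants were scored 0-9 for stand, vigor, malformation, size, chlorosis and appearance relative to controls.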

[4] = test system: […], PRESL.; assay: Preemergence weed control under flooded paddy conditions, MOOVA (Monochoria); conditions: for MOOVA herbicidal rating: preemergence weeds, rated three to four weeks after treatment; for Herbicidal effect rating, MOOVA: preemergence, 3-4 weeks after treatment
Outline: as §1

[5] = test system: CHENOPODIUM ALBUM, L.; assay: Preemergence herbicidal evaluation, CHEAL (Lambsquarters, Common); conditions: for CHEAL rating: four to five weeks after treatment; for CHEAL herbicidal rating: rated four to five weeks after treatment
Outline: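 First, seeds in potting soil are sown atop soil in cups. Next, the surface is sprayed with test compound in aqueous acetone at roughly 0.125 to 0.50 kg per hectare. After four to five weeks of greenhouse care, each cup is scored 0-9 against a control.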

[6] = test system: ORYZA SATIVA, L. TEBONNET; assay: Rice tolerance to post-transplant applications under flooded paddy conditions, ORYSAT (Rice, Tebonnet); conditions: post-transplant rice; for ORYSAT herbicidal rating (rice tolerance): rated three to four weeks after treatment; for Herbicidal effect rating, ORYSAT: 3-4 weeks after treatment;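 for ORYSAT herbicidal rating (rice tolerance): applied to flooded soil surface three days after transplanting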
Outline: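 Greenhouse pots of silt loam, each with two transplanted ten-day-old seedlings, are held under 1.5 to 3 cm of standing water. Three days later the compound is applied to the flooded surface at about 0.5, 0.25, 0.125 or 0.063 kg/ha. Damage is scored visually 0-9 after 3-4 weeks.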

[7] = test system: AMBROSIA ARTEMISIIFOLIA, L.; assay: Preemergence herbicidal evaluation, AMBEL (Ragweed, Common); conditions: four to five weeks after treatment
Source text: (§2) Results of herbicide evaluation are expressed on a rating scale (0-9). The scale is based upon a visual observation of plant stand, vigor, malformation, size, chlorosis and overall plant appearance as compared with a control.
(§3) The preemergence herbicidal activity of the test compounds of the present invention is exemplified by the following tests in which the seeds of a variety of monocotyledonous and dicotyledonous plants are separately mixed with potting soil and planted on top of approximately one inch of soil in separate pint cups. […] The treated cups are then placed on greenhouse benches, watered and cared for in accordance with conventional greenhouse procedures. From four to five weeks after treatment, the tests are terminated and each cup is examined and rated according to the rating system provided in Example 40.
(§4) The compounds evaluated are reported by compound number given in Example 40.

[8] = test system: CHENOPODIUM ALBUM, L.; assay: Postemergence herbicidal evaluation, CHEAL (Lambsquarters, Common); conditions: rated four to five weeks after treatment, averaged
Outline: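 Postemergence herbicidal activity on Chenopodium album was tested by spraying two-week-old seedlings grown in jiffy flats with compound in acetone/water (50/50) plus 0.5% TWEEN®20, using a 40 psi nozzle. Four to five weeks after treatment, stand, vigor, malformation, size, chlorosis and overall appearance were scored 0-9 relative to controls, with repeat tests averaged.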

[9] = test system: IPOMOEA SPP.; assay: Preemergence herbicidal evaluation, IPOSS (Morningglory spp.); conditions: rated four to five weeks after treatment
Source text: as §2, §3, §4

[10] = test system: CYPERUS SEROTINUS, ROTTB.; assay: Preemergence weed control under flooded paddy conditions, CYPSE (Flatsedge); conditions: preemergence, 3-4 weeks after treatment
Outline: as §1

[11] = test system: SAGITTARIA PYGMAEA, L.; assay: Preemergence weed control under flooded paddy conditions, SAGPY (Arrowhead (Pygmaea)); conditions: preemergence, 3-4 weeks after treatment
Outline: as §1

[12] = test system: CASSIA OBTUSIFOLIA, L.; assay: Preemergence herbicidal evaluation, CASOB (Sicklepod); conditions: rated four to five weeks after treatment
Source text: as §2, §3, §4

[13] = test system: GLYCINE MAX(L) MERR. CV. WILLIAMS; assay: Preemergence herbicidal evaluation, GLXMAW (Soybean, Williams); conditions: rated four to five weeks after treatment
Source text: as §2, §3, §4

[14] = test system: ZEA MAYS L.; assay: Preemergence herbicidal evaluation, ZEAMX (Corn, Field); conditions: rated four to five weeks after treatment
Source text: as §2, §3, §4

[15] = test system: ECHINOCHLOA CRUS-GALLI, (L) BEAU; assay: Preemergence herbicidal evaluation, ECHCG (Barnyardgrass); conditions: rated four to five weeks after treatment
Source text: as §2, §3, §4

[16] = test system: SETARIA VIRIDIS, (L) BEAU; assay: Postemergence herbicidal evaluation, SETVI (Foxtail, Green); design: key to SETVI rating / Herbicidal effect rating, SETVI / SETVI: 0-9 visual rating scale vs untreated control
Outline: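 Each value is a 0–9 visual rating of plant appearance compared with control, recorded 4–5 weeks after a 0.125–0.500 kg/ha spray, with multiple tests averaged.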

[17] = test system: TRITICUM AESTIVUM, CV. APOLLO; assay: Preemergence herbicidal evaluation, TRZAWO (Wheat, Winter, CV. APOLLO); conditions: rated four to five weeks after treatment
Source text: as §2, §3, §4

COC(=O)C(C)n1c(=O)n(C)c(=O)n(-c2cc(Oc3c(F)cc(C(F)(F)F)cc3Cl)ccc2Br)c1=O (stereo not drawn) [Compound 1, Methyl 3-{2-bromo-5-[(2-chloro-α,α,α,6-tetrafluoro-p-tolyl)oxy]phenyl}tetrahydro-α,5-dimethyl-2,4,6-trioxo-s-triazine-1(2H)-acetate]
ECHORC herbicidal rating ([1]; Rate 0.125 kg/ha): 9.0 | ECHORC herbicidal rating ([1]; Rate 0.250 kg/ha): 9.0 | ECHORC herbicidal rating ([1]; Rate 0.500 kg/ha): 9.0 | ABUTH, herbicide rating (0-9) ([2]; Rate 0.125 kg/ha): 9.0 | ABUTH, herbicide rating (0-9) ([2]; Rate 0.250 kg/ha): 9.0 | ABUTH, herbicide rating (0-9) ([2]; Rate 0.500 kg/ha): 9.0 | CYPIR herbicidal rating ([3]; Rate 0.125 kg/ha): 9.0 | CYPIR herbicidal rating ([3]; Rate 0.250 kg/ha): 9.0 | CYPIR herbicidal rating ([3]; Rate 0.500 kg/ha): 9.0 | MOOVA herbicidal rating ([4]; Rate 0.125 kg/ha): 9.0 | MOOVA herbicidal rating ([4]; Rate 0.250 kg/ha): 9.0 | MOOVA herbicidal rating ([4]; Rate 0.500 kg/ha): 9.0 | CHEAL rating ([5]; Rate 0.125 kg/ha): 9.0 | CHEAL rating ([5]; Rate 0.250 kg/ha): 9.0 | CHEAL rating ([5]; Rate 0.500 kg/ha): 9.0 | ORYSAT herbicidal rating (rice tolerance) ([6]; Rate 0.125 kg/ha): 1.0 | ORYSAT herbicidal rating (rice tolerance) ([6]; Rate 0.250 kg/ha): 2.0 | ORYSAT herbicidal rating (rice tolerance) ([6]; Rate 0.500 kg/ha): 3.0 | AMBEL rating ([7]; Rate 0.125 kg/ha): 0.0 | AMBEL rating ([7]; Rate 0.250 kg/ha): 0.0 | AMBEL rating ([7]; Rate 0.500 kg/ha): 0.0 | CHEAL, herbicide rating (0-9) ([8]; Rate 0.125 kg/ha): 9.0 | CHEAL, herbicide rating (0-9) ([8]; Rate 0.250 kg/ha): 9.0 | CHEAL, herbicide rating (0-9) ([8]; Rate 0.500 kg/ha): 9.0

Cn1c(=O)n(CC(N)=O)c(=O)n(-c2cc(Oc3ncc(C(F)(F)F)cc3Cl)ccc2Br)c1=O [Compound 42]
IPOSS herbicidal rating ([9]; Rate 0.125 kg/ha): 0.0 | IPOSS herbicidal rating ([9]; Rate 0.250 kg/ha): 0.0 | IPOSS herbicidal rating ([9]; Rate 0.500 kg/ha): 0.0 | Herbicidal effect rating, CYPSE ([10]; 0.250 kg/ha): 0.0 | Herbicidal effect rating, CYPSE ([10]; 0.500 kg/ha): 0.0 | Herbicidal effect rating, ECHORC ([1]; 0.250 kg/ha): 0.0 | Herbicidal effect rating, ECHORC ([1]; 0.500 kg/ha): 0.0 | Herbicidal effect rating, SAGPY ([11]; 0.250 kg/ha): 0.0 | Herbicidal effect rating, SAGPY ([11]; 0.500 kg/ha): 0.0 | CASOB herbicidal rating ([12]; Rate 0.125 kg/ha): 0.0 | CASOB herbicidal rating ([12]; Rate 0.250 kg/ha): 0.0 | CASOB herbicidal rating ([12]; Rate 0.500 kg/ha): 0.0 | GLXMAW herbicidal rating ([13]; Rate 0.125 kg/ha): 0.0 | GLXMAW herbicidal rating ([13]; Rate 0.250 kg/ha): 0.0 | GLXMAW herbicidal rating ([13]; Rate 0.500 kg/ha): 0.0 | Herbicidal effect rating, MOOVA ([4]; 0.250 kg/ha): 0.0 | Herbicidal effect rating, MOOVA ([4]; 0.500 kg/ha): 0.0 | ZEAMX herbicidal rating ([14]; Rate 0.125 kg/ha): 0.0 | ZEAMX herbicidal rating ([14]; Rate 0.250 kg/ha): 0.0 | ZEAMX herbicidal rating ([14]; Rate 0.500 kg/ha): 0.0 | CHEAL herbicidal rating ([5]; Rate 0.125 kg/ha): 9.0 | CHEAL herbicidal rating ([5]; Rate 0.250 kg/ha): 9.0 | CHEAL herbicidal rating ([5]; Rate 0.500 kg/ha): 9.0 | Herbicidal effect rating, ORYSAT ([6]; 0.250 kg/ha): 1.0 | Herbicidal effect rating, ORYSAT ([6]; 0.500 kg/ha): 2.0 | ECHCG herbicidal rating ([15]; Rate 0.125 kg/ha): 0.0 | ECHCG herbicidal rating ([15]; Rate 0.250 kg/ha): 0.0 | ECHCG herbicidal rating ([15]; Rate 0.500 kg/ha): 0.0 | SETVI rating ([16]; Rate 0.125 kg/ha): 1.0 | SETVI rating ([16]; Rate 0.250 kg/ha): 1.0 | SETVI rating ([16]; Rate 0.500 kg/ha): 1.0

COC(=O)Cn1c(=O)n(C)c(=O)n(-c2cc(Oc3ccc(Cl)cc3Cl)ccc2Br)c1=O [Compound 43, Methyl 3-[2-bromo-5-(2,4-dichlorophenoxy)-phenyl]tetrahydro-5-methyl-2,4,6-trioxo-s-triazine-1(2H)-acetate]
Herbicidal effect rating, ECHORC ([1]; 0.063 kg/ha): 9.0 | Herbicidal effect rating, ECHORC ([1]; 0.125 kg/ha): 9.0 | Herbicidal effect rating, ECHORC ([1]; 0.250 kg/ha): 9.0 | Herbicidal effect rating, ECHORC ([1]; 0.500 kg/ha): 9.0 | CHEAL herbicidal rating ([5]; Rate 0.125 kg/ha): 9.0 | CHEAL herbicidal rating ([5]; Rate 0.250 kg/ha): 9.0 | CHEAL herbicidal rating ([5]; Rate 0.500 kg/ha): 9.0 | Herbicidal effect rating, ORYSAT ([6]; 0.063 kg/ha): 2.0 | Herbicidal effect rating, ORYSAT ([6]; 0.125 kg/ha): 3.0 | Herbicidal effect rating, ORYSAT ([6]; 0.250 kg/ha): 4.0 | Herbicidal effect rating, ORYSAT ([6]; 0.500 kg/ha): 4.0 | TRZAWO herbicidal rating ([17]; Rate 0.125 kg/ha): 0.5 | TRZAWO herbicidal rating ([17]; Rate 0.250 kg/ha): 0.5 | TRZAWO herbicidal rating ([17]; Rate 0.500 kg/ha): 0.5
